From patent publication US20150183737A1, “COMPOSITIONS AND METHODS FOR SUBSTRATE-SELECTIVE INHIBITION OF ENDOCANNABINOID OXYGENATION” (Vanderbilt University, priority 2012, published 2015) come the findings set out here.

Like-named read-outs stand apart in the source and are kept apart here.

The target in the experiment is T1, purified murine COX-2 (Mus musculus, UniProt Q05769).
T1 sequence (Q05769 18-604): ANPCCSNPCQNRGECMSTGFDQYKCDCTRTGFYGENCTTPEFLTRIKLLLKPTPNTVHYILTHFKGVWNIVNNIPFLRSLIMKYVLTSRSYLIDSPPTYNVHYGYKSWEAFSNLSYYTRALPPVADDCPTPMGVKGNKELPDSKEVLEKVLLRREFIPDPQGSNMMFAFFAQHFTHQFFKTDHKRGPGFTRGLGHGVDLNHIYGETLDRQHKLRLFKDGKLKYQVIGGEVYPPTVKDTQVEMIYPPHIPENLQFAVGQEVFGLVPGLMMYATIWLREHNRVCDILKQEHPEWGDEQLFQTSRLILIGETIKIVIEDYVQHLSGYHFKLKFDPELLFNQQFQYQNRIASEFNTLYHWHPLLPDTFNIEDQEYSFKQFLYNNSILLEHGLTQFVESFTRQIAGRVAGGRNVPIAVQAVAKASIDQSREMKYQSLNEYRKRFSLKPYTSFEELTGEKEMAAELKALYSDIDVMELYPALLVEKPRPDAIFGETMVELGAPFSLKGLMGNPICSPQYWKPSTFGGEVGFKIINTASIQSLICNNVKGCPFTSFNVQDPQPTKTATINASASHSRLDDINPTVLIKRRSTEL
In words: Inhibition of mCOX-2 dependent oxygenation of 2-AG and AA by profens in vitro. It counts as biochemical. The arrangement: made in house; host or cells: insect cells. The method, then: Desired concentrations of inhibitor in DMSO or blank (DMSO) were incubated with mCOX-2 (40 nM) for 3 minutes in 100 mM Tris-HCl with 0.5 mM phenol, pH 8.0 at 37° C. After pre-incubation of enzyme and inhibitor, 5 μM of AA or 2-AG was added at 37° C. Thirty seconds later, the reaction was quenched with 200 μL of ice-cold ethyl acetate containing 0.5% acetic acid (v/v) and 1 μM PGE2-d4 and PGE2-G-d5. The solution was then vortexed and the aqueous layer frozen. The organic layer was removed and evaporated to near-dryness under nitrogen. The samples were reconstituted in 1:1 MeOH:H2O and chromatographed using a LUNA® C18(2) column (50 2 mm, 3 μm; Phenomenex, Torrance, Calif., United States of America). […] Analyte peak areas were normalized to the appropriate internal standard to determine the amount of product formation, and inhibition was determined by normalization to a DMSO control.

Where [1] appears, read: chiral profens, murine COX-2 40 nM, 3 min preincubation, 2-AG 5 μM, mean ± SD, read-out: IC50 (μM) 2-AG.
[2] abbreviates: achiral profens, at 10 μM inhibitor, AA 5 μM, read-out: AA % Inhibition.
[3] abbreviates: achiral profens, murine COX-2 40 nM, 3 min preincubation, 2-AG 5 μM, 37° C., 30 s, mean ± SD, read-out: 2-AG IC50.
Where [4] appears, read: read-out: Maximum inhibition of 2-AG oxygenation, achiral profens, at 10 μM inhibitor, 2-AG 5 μM.
Where [5] appears, read: 0.5 min, achiral profens, murine COX-2 40 nM, 3 min preincubation, 2-AG 5 μM, 37° C., 30 s, mean ± SD, read-out: 2-AG IC50.

Take `CC(C(=O)O)c1cccc(Oc2ccccc2)c1` (racemic) [Compound 6d, fenoprofen, reference compound]: the inhibition at 10 µM (chiral profens, at 10 μM inhibitor, AA 5 μM, read-out: % Inhibition AA) came out at 20%. The IC50 (in general, the concentration that inhibits the measured activity by half) under setting [1] worked out at 0.9 µM.

With `CC(C(=O)O)c1cccc(C(=O)c2ccccc2)c1` (racemic) [Compound 6e, ketoprofen, reference compound], the half-inhibitory concentration (IC50) under setting [1] worked out at 0.3 µM. Also, the inhibition at 10 µM (read-out: % Inhibition AA) came to 50%.

As for `C[C@H](C(=O)O)c1cccc(Oc2ccccc2)c1` [(S)-fenoprofen, reference compound], the “% Inhibition AA” value (chiral profens, at 10 μM inhibitor, AA 5 μM) was 30%. Also, the half-inhibitory concentration (IC50) under setting [1] was 0.9 µM.

In the case of `C[C@H](C(=O)O)c1cccc(C(=O)c2ccccc2)c1` [(S)-ketoprofen, reference compound], the IC50 under setting [1] worked out at 0.2 µM. Further, the inhibition at 10 µM (read-out: % Inhibition AA) is 55%.

Consider `COc1ccc2cc(CC(=O)O)ccc2c1` [Compound 3b, 2-(6-methoxynaphthalen-2-yl)acetic acid], for which the inhibition at 10 µM under setting [2] came to 16%. In addition, the half-inhibitory concentration (IC50) under setting [3] came to 1.4 µM.

`CC(C)Cc1ccc(CC(=O)O)cc1` [Compound 3c, 2-(4-isobutylphenyl)acetic acid]: the inhibition at 10 µM under setting [2] is 14%. For the same molecule, the IC50 under setting [3] worked out at 5.5 µM.

As to `O=C(O)Cc1cccc(Oc2ccccc2)c1` [Compound 3d, 2-(3-phenoxyphenyl)acetic acid], the inhibition at 10 µM is, setting by setting: under setting [2], 24%; under setting [4], 68%. For the same molecule, the half-inhibitory concentration (IC50) under setting [3] was found to be 6.1 µM.

Consider `O=C(O)Cc1cccc(C(=O)c2ccccc2)c1` [Compound 3e, Desmethylketoprofen], for which the inhibition at 10 µM under setting [2] stood at 10%. The IC50 under setting [3] was 0.5 µM.

Consider `COc1ccc2cc(C(C)(C)C(=O)O)ccc2c1` [Compound 4b, 2-(6-methoxynaphthalen-2-yl)-2-methylpropanoic acid], for which the inhibition at 10 µM runs as follows: under setting [5], < 50%; under setting [2], 7%; under setting [4], 12%.

For `CC(C)Cc1ccc(C(C)(C)C(=O)O)cc1` [Compound 4c, 2-(4-isobutylphenyl)-2-methylpropanoic acid], the inhibition at 10 µM was < 50% under setting [5], 5% under setting [2] and 5% under setting [4].

Turning to `CC(C)(C(=O)O)c1cccc(Oc2ccccc2)c1` [Compound 4d, 2-methyl-2-(3-phenoxyphenyl)propanoic acid], the inhibition at 10 µM stood at 17% under setting [2] and 65% under setting [4]. Also, the IC50 under setting [3] was 7.3 µM.

`CC(C)(C(=O)O)c1cccc(C(=O)c2ccccc2)c1` [Compound 4e, 2-(3-benzoylphenyl)-2-methylpropanoic acid]: under setting [2], the inhibition at 10 µM was determined as 32%. Also, the IC50 under setting [3] amounted to 3 µM.

Take `COc1ccc2cc(C3(C(=O)O)CC3)ccc2c1` [Compound 5b, 1-(6-methoxynaphthalen-2-yl)cyclopropanecarboxylic acid]: the inhibition at 10 µM turned out to be 6% under setting [2] and 77% under setting [4]. Further, the half-maximal inhibitory concentration (IC50) under setting [3] was 3.4 µM.

With `CC(C)Cc1ccc(C2(C(=O)O)CC2)cc1` [Compound 5c, 1-(4-isobutylphenyl)cyclopropanecarboxylic acid], the inhibition at 10 µM was < 50% under setting [5], 10% under setting [2] and 45% under setting [4].

For `O=C(O)C1(c2cccc(Oc3ccccc3)c2)CC1` [Compound 5d, 1-(3-phenoxyphenol)cyclopropanecarboxylic acid], the inhibition at 10 µM under setting [2] amounted to 15%. Further, under setting [3], the IC50 came out at 5 µM.

With `O=C(c1ccccc1)c1cccc(C2(C(=O)O)CC2)c1` [Compound 5e, 1-(3-benzoylphenyl)cyclopropanecarboxylic acid], the inhibition at 10 µM by setting is: under setting [2], 10%; under setting [4], 75%. Moreover, the concentration for half-maximal inhibition (IC50) under setting [3] turned out to be 4.1 µM.
